Source: patent US20230416227A1, “PLASMA KALLIKREIN INHIBITORS” (Merck Sharp & Dohme LLC, priority 2020, published 2023)
pIC50: −log10 of the molar value.

Molecular target: T1, Human plasma kallikrein (Homo sapiens, UniProt P03952)
T1 construct: yields a heavy chain (371 amino acids) and a light chain (248 amino acids); purchased Enzyme Research Laboratories
Experiment: Plasma Kallikrein Assay
Format: biochemical
Details: purified Human plasma kallikrein 0.5 nM, substrate Acetyl-K-P-R-AFC, pH 7.4
Procedure: The effectiveness of a compound of the present invention as an inhibitor of plasma kallikrein can be determined using a relevant purified serine protease, and an appropriate synthetic substrate. The rate of hydrolysis of the chromogenic or fluorogenic substrate by the relevant serine protease was measured both in the absence and presence of compounds of the present invention. Assays were conducted at rt or at 37° C. […] A decrease in the rate of fluorescence change in the presence of inhibitor is indicative of enzyme inhibition. Such methods are known to one skilled in the art. The results of this assay are expressed as the half-maximal inhibitory concentrations (IC50), or the inhibitory constant, Ki.
Plasma kallikrein determinations were made in 50 mM HEPES buffer at pH 7.4 containing 150 mM NaCl, 5 mM CaCl2), and 0.1% PEG 8000 (polyethylene glycol; Fisher Scientific). […]
Times required to achieve equilibration between enzyme and inhibitor were determined in control experiments. The reactions were performed under linear progress curve conditions and fluorescence increase measured at 405 Ex/510 Em nm. […] IC50 was determined by inflection point from a four parameter logistic curve fit. Ki was calculated using the Cheng Prusoff equation, Ki=IC50/(1+([S]/Km)).

T1 sequence (P03952 391-638 limits assumed): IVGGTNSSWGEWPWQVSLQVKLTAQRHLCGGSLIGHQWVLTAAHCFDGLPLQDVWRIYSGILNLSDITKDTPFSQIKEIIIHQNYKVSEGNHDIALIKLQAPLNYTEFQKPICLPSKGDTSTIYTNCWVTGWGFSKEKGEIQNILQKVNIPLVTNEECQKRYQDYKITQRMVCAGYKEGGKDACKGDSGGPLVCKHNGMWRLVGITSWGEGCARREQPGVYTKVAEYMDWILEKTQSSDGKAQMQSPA
T1 sequence (P03952 20-390 partner limits assumed): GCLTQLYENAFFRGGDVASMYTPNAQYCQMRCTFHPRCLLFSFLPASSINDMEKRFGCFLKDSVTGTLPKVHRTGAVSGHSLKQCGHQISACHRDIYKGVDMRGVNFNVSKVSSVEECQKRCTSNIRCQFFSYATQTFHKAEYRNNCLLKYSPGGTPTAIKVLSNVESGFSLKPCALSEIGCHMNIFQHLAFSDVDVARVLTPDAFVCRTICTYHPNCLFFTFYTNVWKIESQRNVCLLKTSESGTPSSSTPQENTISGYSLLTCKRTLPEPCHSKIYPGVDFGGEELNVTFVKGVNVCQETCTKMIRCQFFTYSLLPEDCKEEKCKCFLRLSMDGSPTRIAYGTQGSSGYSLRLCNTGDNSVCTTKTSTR

Structure (SMILES)	pIC50
CC1CCN1c1ncc(C(C)n2cc(NC(=O)c3cncc(-c4c(C(F)F)ccc(Cl)c4F)n3)cn2)cn1 (racemic) [Example 100, 6-(3-Chloro-6-(difluoromethyl)-2-fluorophenyl)-N-(1-((R and S)-1-(2-((R and S)-2-methylazetidin-1-yl)pyrimidin-5-yl)ethyl)-1H-pyrazol-4-yl)pyrazine-2-carboxamide]	7.69
CC(c1cnc(N2CCC[C@@H]2C(N)=O)nc1)n1cc(NC(=O)c2cncc(-c3c(C(F)F)ccc(Cl)c3F)n2)cn1 (mixture of isomers) [Example 104, N-(1-((R and S)-1-(2-((R)-2-Carbamoylpyrrolidin-1-yl)pyrimidin-5-yl)ethyl)-1H-pyrazol-4-yl)-6-(3-chloro-6-(difluoromethyl)-2-fluorophenyl)pyrazine-2-carboxamide]	7.48
CC(c1cnc(N2CC3CC3C2)nc1)n1cc(NC(=O)c2nc(-c3c(C(F)F)ccc(Cl)c3F)cnc2N)cn1 (single isomer, unassigned) [Example 33, N-(1-((1S or 1R)-1-(2-(3-azabicyclo[3.1.0]hexan-3-yl)pyrimidin-5-yl)ethyl)-1H-pyrazol-4-yl)-3-amino-6-(3-chloro-6-(difluoromethyl)-2-fluorophenyl)pyrazine-2-carboxamide]	7.58
O=C(Nc1cnn(C2CCc3nc(N4CCC4)ccc32)c1)c1cncc(-c2c(C(F)F)ccc(Cl)c2F)n1 (single isomer, unassigned) [Example 35, (S or R)-N-(1-(2-(azetidin-1-yl)-6,7-dihydro-5H-cyclopenta[b]pyridin-5-yl)-1H-pyrazol-4-yl)-6-(3-chloro-6-(difluoromethyl)-2-fluorophenyl)pyrazine-2-carboxamide]	7.48
CC1C2CC2CN1c1ncc(C(CO)n2cc(NC(=O)c3cncc(-c4c(C(F)F)ccc(Cl)c4F)n3)cn2)cn1 (single isomer, unassigned) [Example 48, 6-(3-Chloro-6-(difluoromethyl)-2-fluorophenyl)-N-(1-((S or R)-2-hydroxy-1-(2-((1S,2R,5R or 1R, 2S, 5S)-2-methyl-3-azabicyclo[3.1.0]hexan-3-yl)pyrimidin-5-yl)ethyl)-1H-pyrazol-4-yl)pyrazine-2-carboxamide]	6.14
CC1C2CC2CN1c1ncc(C(CO)n2cc(NC(=O)c3cncc(-c4c(C(F)F)ccc(Cl)c4F)n3)cn2)cn1 (single isomer, unassigned) [Example 49, 6-(3-Chloro-6-(difluoromethyl)-2-fluorophenyl)-N-(1-((R or S)-2-hydroxy-1-(2-((1S,2R,5R or 1R,2S, 5S)-2-methyl-3-azabicyclo[3.1.0]hexan-3-yl)pyrimidin-5-yl)ethyl)-1H-pyrazol-4-yl)pyrazine-2-carboxamide]	7.75
CC1C2CC2CN1c1ncc(C(CO)n2cc(NC(=O)c3cncc(-c4c(C(F)F)ccc(Cl)c4F)n3)cn2)cn1 (single isomer, unassigned) [Example 50, 6-(3-Chloro-6-(difluoromethyl)-2-fluorophenyl)-N-(1-((S or R)-2-hydroxy-1-(2-((1R,2S,5S or 1S,2R, 5R)-2-methyl-3-azabicyclo[3.1.0]hexan-3-yl)pyrimidin-5-yl)ethyl)-1H-pyrazol-4-yl)pyrazine-2-carboxamide]	5.95
CC1C2CC2CN1c1ncc(C(CO)n2cc(NC(=O)c3cncc(-c4c(C(F)F)ccc(Cl)c4F)n3)cn2)cn1 (single isomer, unassigned) [Example 51, 6-(3-Chloro-6-(difluoromethyl)-2-fluorophenyl)-N-(1-((R or S)-2-hydroxy-1-(2-((1R,2S,5S or 1S,2R, 5R)-2-methyl-3-azabicyclo[3.1.0]hexan-3-yl)pyrimidin-5-yl)ethyl)-1H-pyrazol-4-yl)pyrazine-2-carboxamide]	5.42
Cc1cc(N2CCC2)ncc1[C@@H](C)n1cc(NC(=O)c2cncc(-c3c(C(F)F)ccc(Cl)c3F)n2)cn1 (single isomer, unassigned) [Example 67]	6.81
C[C@@H](c1cnc(N2C[C@@H]3C[C@@H]3[C@@H]2CO)nc1)n1cc(NC(=O)c2cncc(-c3c(C(F)F)ccc(Cl)c3F)n2)cn1 (single isomer, unassigned) [Example 86, 6-(3-Chloro-6-(difluoromethyl)-2-fluorophenyl)-N-(1-((S or R)-1-(2-((1S,2R,5R or 1R,2S,5S)-2-(hydroxymethyl)-3-azabicyclo[3.1.0]hexan-3-yl)pyrimidin-5-yl)ethyl)-1H-pyrazol-4-yl)pyrazine-2-carboxamide]	7.88
O=C(Nc1cnn(Cc2cnc(N3CCC4OCCC43)nc2)c1)c1cncc(-c2c(C(F)F)ccc(Cl)c2F)n1 (single isomer, unassigned) [Example 103, 6-(3-Chloro-6-(difluoromethyl)-2-fluorophenyl)-N-(1-((2-((3aS,6aS or 3aR,6aR)-hexahydro-4H-furo[3,2-b]pyrrol-4-yl)pyrimidin-5-yl)methyl)-1H-pyrazol-4-yl)pyrazine-2-carboxamide]	7.50
CC(C)(O)CC1CCCN1c1ncc(Cn2cc(NC(=O)c3cncc(-c4c(C(F)F)ccc(Cl)c4F)n3)cn2)cn1 (single isomer, unassigned) [Example 110, (S or R)-6-(3-Chloro-6-(difluoromethyl)-2-fluorophenyl)-N-(1-((2-(2-(2-hydroxy-2-methylpropyl)pyrrolidin-1-yl)pyrimidin-5-yl)methyl)-1H-pyrazol-4-yl)pyrazine-2-carboxamide]	7.34
O=C(Nc1cnn(Cc2cnc(N3CCCC3CC3(O)CC3)nc2)c1)c1cncc(-c2c(C(F)F)ccc(Cl)c2F)n1 (single isomer, unassigned) [Example 112, (S or R)-6-(3-Chloro-6-(difluoromethyl)-2-fluorophenyl)-N-(1-((2-(2-((1-hydroxycyclopropyl)methyl)pyrrolidin-1-yl)pyrimidin-5-yl)methyl)-1H-pyrazol-4-yl)pyrazine-2-carboxamide]	7.31
O=C(Nc1cnn(Cc2ccc(N3CCC4OCCC43)nc2)c1)c1cncc(-c2c(C(F)F)ccc(Cl)c2F)n1 (single isomer, unassigned) [Example 122, 6-(3-Chloro-6-(difluoromethyl)-2-fluorophenyl)-N-(1-((6-((3aR,6aR or 3aS,6aS)-hexahydro-4H-furo[3,2-b]pyrrol-4-yl)pyridin-3-yl)methyl)-1H-pyrazol-4-yl)pyrazine-2-carboxamide]	7.71
CC(N)C1CCCN1c1ncc(Cn2cc(NC(=O)c3cncc(-c4c(C(F)F)ccc(Cl)c4F)n3)cn2)cn1 (single isomer, unassigned) [Example 156, N-(1-((2-(2-(1-Aminoethyl)pyrrolidin-1-yl)pyrimidin-5-yl)methyl)-1H-pyrazol-4-yl)-6-(3-chloro-6-(difluoromethyl)-2-fluorophenyl)pyrazine-2-carboxamide]	8.14
CC(N)C1CCCN1c1ncc(Cn2cc(NC(=O)c3cncc(-c4c(C(F)F)ccc(Cl)c4F)n3)cn2)cn1 (single isomer, unassigned) [Example 160, N-(1-((2-(2-(1-Aminoethyl)pyrrolidin-1-yl)pyrimidin-5-yl)methyl)-1H-pyrazol-4-yl)-6-(3-chloro-6-(difluoromethyl)-2-fluorophenyl)pyrazine-2-carboxamide]	7.37
C[C@H](c1cnc(N2C[C@H]3C[C@H]3[C@H]2C#N)nc1)n1cc(NC(=O)c2cncc(-c3c(C(F)F)ccc(Cl)c3F)n2)cn1 (single isomer, unassigned) [Example 196]	8.33
CC(c1cnc(N2CC3CC3C2C#N)nc1)n1cc(NC(=O)c2cncc(-c3c(C(F)F)ccc(Cl)c3F)n2)cn1 (single isomer, unassigned) [Example 197]	6.39
CC(c1cnc(N2CC3CC3C2C#N)nc1)n1cc(NC(=O)c2cncc(-c3c(C(F)F)ccc(Cl)c3F)n2)cn1 (single isomer, unassigned) [Example 198]	6.72
CC(c1cnc(N2C[C@H]3C[C@H]3C2C(=O)N(C)C)nc1)n1cc(NC(=O)c2cncc(-c3c(C(F)F)ccc(Cl)c3F)n2)cn1 (single isomer, unassigned) [Example 201, (1R,2S,5S or 1S,2R,5R)-3-(5-((S or R)-1-(4-(6-(3-Chloro-6-(difluoromethyl)-2-fluorophenyl)pyrazine-2-carboxamido)-1H-pyrazol-1-yl)ethyl)pyrimidin-2-yl)-N,N-dimethyl-3-azabicyclo[3.1.0]hexane-2-carboxamide]	8.21
CC(c1cnc(N2C[C@H]3C[C@H]3C2C(=O)N(C)C)nc1)n1cc(NC(=O)c2cncc(-c3c(C(F)F)ccc(Cl)c3F)n2)cn1 (single isomer, unassigned) [Example 203, (1R,2S,5S or 1S,2R,5R)-3-(5-((S or R)-1-(4-(6-(3-Chloro-6-(difluoromethyl)-2-fluorophenyl)pyrazine-2-carboxamido)-1H-pyrazol-1-yl)ethyl)pyrimidin-2-yl)-N,N-dimethyl-3-azabicyclo[3.1.0]hexane-2-carboxamide]	7.11
Nc1ncc(-c2c(C(F)F)ccc(Cl)c2F)nc1C(=O)Nc1cnn(Cc2cnc(N3CCC3)nc2)c1 [Example 3, 3-Amino-N-(1-((2-(azetidin-1-yl)pyrimidin-5-yl)methyl)-1H-pyrazol-4-yl)-6-(3-chloro-6-(difluoromethyl)-2-fluorophenyl)pyrazine-2-carboxamide]	7.39
